Laboratory results taken from patent US8338420B1, “Treatment of Parkinson's disease and enhancement of dopamine signal using PDE 10 inhibitor” (Mitsubishi Tanabe Pharma Corporation, priority 2002, dated 2012).

Legend:
marmoset MPTP model = test: Marmoset MPTP model, effect on bromocriptine efficacy; assay type: in vivo; conditions: together with bromocriptine (0.3 mg/kg), versus vehicle with bromocriptine
Experimental: Using bromocriptine (bromocriptine mesilate) as a dopamine receptor agonist, effect of test compound on pharmaceutical effects caused by administration of dopamine receptor agonist, in marmoset MPTP model was tested as follows.
The same method was employed as in Example 6, except for using bromocriptine (bromocriptine mesilate) in place of L-dopa and benserazide.
Each test was performed with respect to the same individual sequentially, and intervals of 5 days or more were allowed between the tests. • test 1: vehicle • test 2: vehicle and bromocriptine mesilate • test 3: test compound (PDE10 inhibitor) and bromocriptine mesilate
[…] Further, as test compounds, compounds confirmed with PDE10 inhibitory activities were administered via saphenous vein, 90 minutes before administration of bromocriptine mesilate, under anesthesia by ketamine and isoflurane (In test 1 and test 2, only vehicle was administered in place of the test compound in the same manner).
Bromocriptine mesilate was suspended in 0.5% methylcellulose solution on the day of administration and used. Test compound (PDE10 inhibitor) was dissolved in a solvent 30 minutes before administration and used.
After administration of test compound (PDE10 inhibitor) (or vehicle) and bromocriptine mesilate, locomotor activity and motor disability score were evaluated for each individual, in the same manner as in Example 6. […]

[1] = system: rat 6-hydroxydopamine model; test: Rat 6-hydroxydopamine model, L-dopa induced rotational behaviors; assay type: in vivo, SD rat; conditions: 1 mg/kg, i.v.; L-dopa 10 mg/kg i.p. + benserazide 2.5 mg/kg i.p.
Experimental: Preparation of rat 6-hydroxydopamine model According to the method described in the literature (Koga et al., European Journal of Pharmacology, vol. 408, pp. 249-255, 2000), 6-hydroxydopamine (6-OHDA) was administered in the rat's brain, to cause lesion in the substantia nigra of the brain, to thereby cause motor disability. As the rats, male SD (Sprague Dawley) rats (about 9 to 10 week old) were used. To these rats was administered desipramine (available from Sigma) (25 mg/kg, i.p.). Desipramine was used after being dissolved in distilled water to be 25 mg/ml. […]
One week after administration of 6-OHDA, apomorphine was administered, and rotational behaviors were confirmed to appear due to the lesion of substantia nigra by 6-OHDA in one hemisphere. […] Turnings were counted in every 5-minute interval, until rotational behaviors disappeared or until an event was repeated twice in which the number of turnings became 5 or less during the 5-minute interval. […]
To the model rat prepared in the above (1) (2 weeks after administration of apomorphine), L-dopa and benserazide (dopa decarboxylase inhibitor which inhibits degradation of L-dopa) were administered, and numbers of tunings were measured. […]
L-dopa was administered 30 minutes after benserazide administration, and turnings were counted after L-dopa administration. […]

COc1ccc(-c2cc(N3CCCC3)nc(/C=C/c3nc(-n4ccnc4)c4ccccc4n3)n2)cc1OC [Compound A, 2-{(E)-2-[4-(1-imidazolyl)-quinazolin-2-yl]}ethenyl-4-(3,4-dimethoxy)phenyl-6-(pyrrolidin-1-yl)pyrimidine]
effects of bromocriptine to alleviate symptoms (locomotor activity and motor disability score) (marmoset MPTP model): had a tendency to enhance the effects of bromocriptine to alleviate symptoms
L-dopa induced rotational behaviors, total number of turnings [1]: tended to increase
duration of L-dopa induced rotational behaviors [1]: significantly prolonged
